Measured values published in patent US20110224256A1, “T[…] THE TREATMENT OF PSYCHIATRIC DISORDERS” (priority 2008, published 2011).
Entries after “also recorded” stand apart in the source; their conditions may differ. Structures can show the parent of a compound that is named as a salt.

Key:
[1] = tested on: dopamine receptors D1, D2 long, D4 and D5 mRNA; assay: D1, D2 long, D4 and D5 receptor mRNA by Q-PCR after juvenile MPH exposure; format: in vivo, Sprague-Dawley rats; conditions: MPFCx, 25 days after cessation of MPH, P>0.1
[2] = 0.5 mg/kg i.p., within 5 min, rats; cited from earlier work
D2 dopamine receptor = D2 dopamine receptor binding in the striatum by quantitative autoradiography after juvenile methylphenidate; format: in vivo, rats; conditions: 40 days of age, postnatal day 20-35
Procedure: FIG. 7. In this study, rats were administered a dosage of 2 mg/kg methylphenidate either by osmotic minipump (continuous release) or twice daily by interperitoneal injection (intermittent) between the ages of postnatal day 20-35. D2 dopamine receptor binding was assessed in the striatum at 40 days of age using quantitative autoradiography (see Andersen et al., Synapse 37:167-169 (2000)).

Sprague-Dawley male rats = assay: Place conditioning to 10 mg/kg cocaine at P60 after juvenile drug exposure; format: in vivo; conditions: juvenile exposure P20-P35: MPH 2 mg/kg, ±7-OHDPAT 0.3 mg/kg, or MPH 2 mg/kg + Naf 0.05 mg/kg; tested at P60; HCl
Procedure: Juvenile Sprague-Dawley male rats were treated with MPH (2 mg/kg, i.p. twice daily), ±7-OHDPAT (0.3 mg/kg, i.p. twice daily), Naf (0.05, 0.5 and 5 mg/kg; i.p. twice daily) or VEH (i.p. twice daily) between the ages of P20 and P35 (Andersen et al., Nat. Neurosci., 5:13-14 (2002)). The MPH dose was selected on the basis of previous studies (see Andersen et al., Nat. Neurosci., 5:13-14 (2002); Bolanos et al., Biol. Psychiatry, 54:1317-1329 (2003); and Mague et al., Biol. Psychiatry, 57:120-125 (2005)), unpublished observations that we find similar behavioral effects if MPH is given i.p. or orally at this dose, and evidence that it approximates a clinically relevant dose in humans based on plasma levels (see Wargin et al., J. Pharmacol. Exp. Ther., 226:382-386 (1983); and Kuczenski, R. & Segal, D. S. J. Neurosci., 22:7264-7271 (2002)). Clinically therapeutic doses of MPH yield plasma levels between 8 and 40 ng/mL (Swanson et al., Behay. Brain Res., 130:73-78 (2002); Teicher et al., Ann. N. Y. Acad. Sci., 1071:313-323 (2006)), with 0.5 mg/kg i.p., achieving plasma levels of 36 ng/mL within 5 min in rats (Berridge et al., Biol. Psychiatry, 60:1111-1120 (2006)). Doses for juvenile exposure to ±7-OHDPAT are based on Neisewander et al., Neuropsychopharmacology, 29:1479-1487 (2004), and cortical microinjections of 10 µg/side were derived from Boulay et al. Prog. Neuropsychopharmacol. Biol. Psychiatry, 24:39-49 (2000). Naf doses below 1 mg/kg have negligible D2 receptor occupancy (Sautel et al., J. Pharmacol. Exp. Ther., 275:1239-1246 (1995)) and are behaviorally effective (Richtand et al., Brain Res., 867:239-242 (2000)). Subjects were weighed daily at 09.00 h and injected with their assigned drug; the second injection was administered 4 h later at 13.00 h. This regimen is designed to match the twice-daily dosing used by children, taking into account the higher metabolic rates of rats (Wargin et al., J. Pharmacol. Exp. Ther., 226:382-386 (1983)). After the second drug administration on P35, the rats received no further treatments until behavioral testing at P60.
Rats treated between P20 and P35 with either Naf (0, 0.05, 0.5 or 5.0 mg/kg; n=7-9), ±7-OHDPAT (0.3 mg/kg; n=9), MPH (2 mg/kg; n=9), or a combination of 2 mg/kg MPH and 0.05 mg/kg Naf (MPH/Naf; n=8) were tested at P60 for place conditioning to 10 mg/kg cocaine. According to standard laboratory methods (Andersen et al., Nat. Neurosci., 5:13-14 (2002); Carlezon, Methods Mol. Med., 84:243-249 (2003)), unbiased place conditioning chambers consisted of two large (24×18×33) side compartments separated by a small (12×18×33 cm) middle compartment. Screening was conducted for 30 min on Day 1. Rats were placed in the middle compartment and allowed to freely explore the apparatus. […] Two days of conditioning (with two sessions per day) occurred on Days 2 and 3 for 60 min (Andersen et al., Nat. Neurosci., 5:13-14 (2002); Carlezon, Methods Mol. Med., 84:243-249 (2003)). During the conditioning sessions, rats received a 1 mL/kg i.p. injection of VEH in the morning (09.00 h) and confined to one side. The rats were then returned to the home cage. Four hours later, rats received 10 mg/kg cocaine and confined to the other side. Sides differed in floor texture, wall colors and lighting, and assignments were counterbalanced. On Day 4, rats were permitted to freely explore the entire apparatus for 30 min in a drug-free state.

BDNF = BDNF mRNA and protein in MPH-exposed subjects after cocaine challenge; format: in vivo, rats; conditions: in response to cocaine challenge, preliminary, data not shown
From the text: Changes in D3 expression and function may signal a sensitive period of development, when drug imprinting is likely to occur (Andersen, Trends Pharmacol. Sci., 26:237-243 (2005)). Drug-induced perturbations before the completion of dopamine receptor development may prevent these developmental rearrangements.

## COC(=O)C(c1ccccc1)C1CCCCN1 (stereo not drawn) [MPH, d,l-Methylphenidate HCl]
[1]
  changes in other dopamine receptor subtype mRNA (D1, D2 long, D4, D5): No other significant changes
[2]
  plasma levels: 36 ng/mL
D2 dopamine receptor; 2 mg/kg by osmotic minipump (continuous release)
  D2 receptor density: but not when administered by continuous release
D2 dopamine receptor; 2 mg/kg twice daily by intraperitoneal injection (intermittent)
  D2 receptor density: reduced significantly
Sprague-Dawley male rats
  place conditioning to 10 mg/kg cocaine associated environment (pre- vs. post-conditioning): Place aversion; also recorded: aversion to the cocaine-associated environment
BDNF
  BDNF mRNA: reduced
  BDNF protein levels: modestly, but significantly, lower
